From US6355799B1, “Substituted benzene compounds, process for their preparation, and herbicidal and defoliant compositions containing them” (ISK Americas Incorporated, priority 1997, dated 2002)

What was measured:
Format in all cases: in vivo
[1] = tested on: redroot pigweed (Amaranthus retroflexus, AMARE); assay: Pre-emerge test, greenhouse herbicide activity screening; details: rated 14 days after application, 0 = no damage, 100 = complete death
Outline: (§1)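 Sandy loam pots; pre-emerge: sown 1 d pre-spray, surface-watered after, then bottom-watered. Post-emerge: sown 8–21 d before, 2–3 leaf stage, + 0.25% v/v NIS, bottom-watered. Acetone, 187 l/ha track spray, 15–1000 g ai/ha. 0–100 injury score, day 14.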

[2] = tested on: barnyardgrass (Echinochloa crus-galli, ECHCG); assay: as above; details: rated 14 days after application, 0 = no damage, 100 = complete death
Outline: as §1

[3] = tested on: common ragweed (Ambrosia artemisizfolia L., AMBEL); assay: as above; details: rated 14 days after application, 0 = no damage, 100 = complete death
Outline: as §1

[4] = tested on: green foxtail (Setaria viridis, SETVI); assay: as above; details: rated 14 days after application, 0 = no damage, 100 = complete death
Outline: as §1

[5] = tested on: ivyleaf morningglory (Ipomoea hederacea, IPOHE); assay: as above; details: rated 14 days after application, 0 = no damage, 100 = complete death
Outline: as §1

[6] = tested on: johnsongrass (Sorghum halepense, SORHA); assay: as above; details: rated 14 days after application, 0 = no damage, 100 = complete death
Outline: as §1

[7] = tested on: lambsquarters (Chenopodium album, CHEAL); assay: as above; details: rated 14 days after application, 0 = no damage, 100 = complete death
Outline: as §1

[8] = tested on: large crabgrass (Digitaria sanguinalis, DIGSA); assay: as above; details: rated 14 days after application, 0 = no damage, 100 = complete death
Outline: as §1

[9] = tested on: sicklepod (Cassia obtusifolia, CASOB); assay: as above; details: rated 14 days after application, 0 = no damage, 100 = complete death
Outline: as §1

[10] = tested on: velvetleaf (Abutilon theophrasti, ABUTH); assay: as above; details: rated 14 days after application, 0 = no damage, 100 = complete death
Outline: as §1

[11] = tested on: field corn (Zea mays L., var. Dekalb 535, CORN); assay: Pre-emerge test, crop safety; details: rated 14 days after application, 0 = no damage, 100 = complete death
Outline: (§2)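 Rating: 0–100 visual injury, 14 DAA. Application: acetone, 187 l/ha, 15–1000 g ai/ha, flat-fan track sprayer with nozzle 40–45 cm above soil or canopy. Post-emerge runs used 0.25% v/v surfactant on 2–3 leaf plants.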

[12] = tested on: upland rice (Oryza sp., var. Tebonnet, RICE); assay: Pre-emerge test, crop safety; details: rated 14 days after application, 0 = no damage, 100 = complete death
Outline: as §2

[13] = tested on: barnyardgrass (Echinochloa crus-galli, ECHCG); assay: Post-emerge test, greenhouse herbicide activity screening; details: post-emerge, 14 days after application, rating scale 0-100
Outline: (§3)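 Plants grown in 10 cm pots of sandy loam mix received acetone-dissolved compounds through a moving flat-fan nozzle. Doses ranged from 15 to 1000 g ai/ha. Pre-emerge pots were seeded one day earlier, post-emerge pots 8–21 days earlier. Fourteen days on, each pot was graded 0–100 for damage.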

[14] = tested on: common ragweed (Ambrosia artemisizfolia L., AMBEL); assay: as above; details: post-emerge, 14 days after application, rating scale 0-100
Outline: as §3

[15] = tested on: ivyleaf morningglory (Ipomoea hederacea, IPOHE); assay: as above; details: post-emerge, 14 days after application, rating scale 0-100
Outline: as §3

[16] = tested on: johnsongrass (Sorghum halepense, SORHA); assay: as above; details: post-emerge, 14 days after application, rating scale 0-100
Outline: as §3

[17] = tested on: lambsquarters (Chenopodium album, CHEAL); assay: as above; details: post-emerge, 14 days after application, rating scale 0-100
Outline: as §3

[18] = tested on: large crabgrass (Digitaria sanguinalis, DIGSA); assay: as above; details: post-emerge, 14 days after application, rating scale 0-100
Outline: as §3

[19] = tested on: redroot pigweed (Amaranthus retroflexus, AMARE); assay: as above; details: post-emerge, 14 days after application, rating scale 0-100
Outline: as §3

[20] = tested on: sicklepod (Cassia obtusifolia, CASOB); assay: as above; details: post-emerge, 14 days after application, rating scale 0-100
Outline: as §3

[21] = tested on: velvetleaf (Abutilon theophrasti, ABUTH); assay: as above; details: post-emerge, 14 days after application, rating scale 0-100
Outline: as §3

[22] = tested on: field corn (Zea mays L., var. Dekalb 535, CORN); assay: Post-emerge test, crop safety; details: post-emerge, 14 days after application, rating scale 0-100
Outline: as §1

[23] = tested on: upland rice (Oryza sp., var. Tebonnet, RICE); assay: Post-emerge test, crop safety; details: post-emerge, 14 days after application, rating scale 0-100
Outline: as §1

## COc1c(Cl)cc(F)c(-n2c(=O)cc(C(F)(F)F)n(C)c2=O)c1N(C(=O)c1ccc(F)c(F)c1)C(=O)c1ccc(F)c(F)c1 [2-49]
[1]; 63 g ai/ha
  Pre-emerge Herbicidal Activity, phytotoxicity rating (0-100), AMARE: 100
[1]; 250 g ai/ha
  Pre-emerge Herbicidal Activity, phytotoxicity rating (0-100), AMARE: 100
[2]; 63 g ai/ha
  Pre-emerge Herbicidal Activity, phytotoxicity rating (0-100), ECHCG: 0
[2]; 250 g ai/ha
  Pre-emerge Herbicidal Activity, phytotoxicity rating (0-100), ECHCG: 10
[3]; 63 g ai/ha
  Pre-emerge Herbicidal Activity, phytotoxicity rating (0-100), AMBEL: 100
[3]; 250 g ai/ha
  Pre-emerge Herbicidal Activity, phytotoxicity rating (0-100), AMBEL: 100
[4]; 63 g ai/ha
  Pre-emerge Herbicidal Activity, phytotoxicity rating (0-100), SETVI: 80
[4]; 250 g ai/ha
  Pre-emerge Herbicidal Activity, phytotoxicity rating (0-100), SETVI: 95
[5]; 63 g ai/ha
  Pre-emerge Herbicidal Activity, phytotoxicity rating (0-100), IPOHE: 0
[5]; 250 g ai/ha
  Pre-emerge Herbicidal Activity, phytotoxicity rating (0-100), IPOHE: 90
[6]; 63 g ai/ha
  Pre-emerge Herbicidal Activity, phytotoxicity rating (0-100), SORHA: 0
[6]; 250 g ai/ha
  Pre-emerge Herbicidal Activity, phytotoxicity rating (0-100), SORHA: 0
[7]; 63 g ai/ha
  Pre-emerge Herbicidal Activity, phytotoxicity rating (0-100), CHEAL: 100
[7]; 250 g ai/ha
  Pre-emerge Herbicidal Activity, phytotoxicity rating (0-100), CHEAL: 100
[8]; 63 g ai/ha
  Pre-emerge Herbicidal Activity, phytotoxicity rating (0-100), DIGSA: 20
[8]; 250 g ai/ha
  Pre-emerge Herbicidal Activity, phytotoxicity rating (0-100), DIGSA: 100
[9]; 63 g ai/ha
  Pre-emerge Herbicidal Activity, phytotoxicity rating (0-100), CASOB: 0
[9]; 250 g ai/ha
  Pre-emerge Herbicidal Activity, phytotoxicity rating (0-100), CASOB: 100
[10]; 63 g ai/ha
  Pre-emerge Herbicidal Activity, phytotoxicity rating (0-100), ABUTH: 100
[10]; 250 g ai/ha
  Pre-emerge Herbicidal Activity, phytotoxicity rating (0-100), ABUTH: 100
[11]; 63 g ai/ha
  Pre-emerge phytotoxicity rating (0-100), crop damage, CORN: 0
[11]; 250 g ai/ha
  Pre-emerge phytotoxicity rating (0-100), crop damage, CORN: 15
[12]; 63 g ai/ha
  Pre-emerge phytotoxicity rating (0-100), crop damage, RICE: 20
[12]; 250 g ai/ha
  Pre-emerge phytotoxicity rating (0-100), crop damage, RICE: 60
[13]; 63 g ai/ha
  phytotoxicity rating ECHCG: 0
[13]; 250 g ai/ha
  phytotoxicity rating ECHCG: 0
[14]; 63 g ai/ha
  phytotoxicity rating AMBEL: 50
[14]; 250 g ai/ha
  phytotoxicity rating AMBEL: 40
[15]; 63 g ai/ha
  phytotoxicity rating IPOHE: 70
[15]; 250 g ai/ha
  phytotoxicity rating IPOHE: 70
[16]; 63 g ai/ha
  phytotoxicity rating SORHA: 0
[16]; 250 g ai/ha
  phytotoxicity rating SORHA: 0
[17]; 63 g ai/ha
  phytotoxicity rating CHEAL: 60
[17]; 250 g ai/ha
  phytotoxicity rating CHEAL: 60
[18]; 63 g ai/ha
  phytotoxicity rating DIGSA: 0
[18]; 250 g ai/ha
  phytotoxicity rating DIGSA: 0
[19]; 63 g ai/ha
  phytotoxicity rating AMARE: 20
[19]; 250 g ai/ha
  phytotoxicity rating AMARE: 40
[20]; 63 g ai/ha
  phytotoxicity rating CASOB: 30
[20]; 250 g ai/ha
  phytotoxicity rating CASOB: 50
[21]; 63 g ai/ha
  phytotoxicity rating ABUTH: 90
[21]; 250 g ai/ha
  phytotoxicity rating ABUTH: 100
[22]; 63 g ai/ha
  phytotoxicity rating CORN: 0
[22]; 250 g ai/ha
  phytotoxicity rating CORN: 10
[23]; 63 g ai/ha
  phytotoxicity rating RICE: 0
[23]; 250 g ai/ha
  phytotoxicity rating RICE: 10
